{"source": "patent US20220226338A1", "about": "“Methods of Treating Cancer Using CHK1 Inhibitors” (Sierra Oncology, Inc., priority 2019, published 2022)", "key": {"plasma protein": {"system": "plasma protein", "experiment": "Plasma protein binding, ultracentrifugation, minipig plasma", "type": "in vitro ADME", "description": "The PK of SRA737 have been determined in the mouse, rat, dog and monkey following oral and IV administration (Table 3). […] An acceptable terminal elimination t1/2 was also observed in each species. […] The plasma protein binding of SRA737 at 1 and 10 μM was examined in mouse, minipig, monkey and human plasma using ultracentrifugation and in dog plasma (10 μM) using rapid equilibrium dialysis."}, "[1]": {"experiment": "SRA737 monotherapy clinical study (SRA737-01), safety and tolerability", "type": "in vivo", "description": "A Phase 1 clinical trial was conducted in ‘all comers,’ i.e. no genetic selection was performed, to establish safety, tolerability and pharmacokinetics (“Dose Escalation Phase”). Cohorts consisting initially of a single subject received escalating doses of SRA737, starting in Cohort 1 with 20 mg/day administered orally on a continuous daily dosing schedule in 28 day cycles. the dose was escalated until the maximum tolerated dose (MTD) was identified.\nIn the Dose Escalation Phase, 18 subjects received SRA737 in 9 dose level cohorts, from 20 to 1300 mg QD; median treatment duration 62.5 days (range 1 to 226). […] Two of 3 subjects experienced DLTs at the 1300 mg once daily dose, each being an inability to receive 75% of the planned SRA737 dose due to GI intolerability, with the individual GI effects being low grade. […] A cohort receiving 500 mg twice daily was added to determine if a twice daily dosing schedule can improve GI tolerability, given the half-life of SRA737 is approximately 10 hours. One of 6 subjects experienced DLTs in the 500 mg twice daily cohort; this was an inability to receive 75% of the planned SRA737 dose due to grade 4 thrombocytopenia with grade 3 neutropenia and anemia.\nA Dose Escalation phase employed an accelerated titration design starting at 20 mg SRA737, administered QD orally in 28-day cycles. Incremental dose escalations in single-subject cohorts were followed by a rolling-6 design once SRA737-related ≥Grade 2 toxicity was observed during Cycle 1.\nDose limiting toxicities (DLTs) were assessed following a pharmacokinetic (PK) lead-in dose, and throughout Cycle 1 of treatment, and were defined as adverse events highly probably or probably related to SRA737: grade ≥4 neutropenia or thrombocytopenia lasting >7 days, grade ≥3 febrile neutropenia or thrombocytopenia with bleeding, grade ≥3 non-hematologic toxicity, or the inability to receive ≥75% of the planned SRA737 dose in Cycle 1 due to drug-related toxicity."}}, "data": [{"smiles": "N#Cc1cnc(Nc2cc(NCC3CNCCO3)c(C(F)(F)F)cn2)cn1", "note": "(centres unmarked) [SRA737, 5-[[4-[[morpholin-2-yl]methylamino]-5-(trifluoromethyl)-2-pyridyl]amino]pyrazine-2-carbonitrile]", "values": [{"measurement": "Percentage Bound", "setting": "plasma protein; 1 μM", "value": 85.2, "unit": "%"}, {"measurement": "Percentage Free", "setting": "plasma protein; 1 μM", "value": 14.9, "unit": "%"}, {"measurement": "Percentage Bound", "setting": "plasma protein; 10 μM", "value": 75.5, "unit": "%"}, {"measurement": "Percentage Free", "setting": "plasma protein; 10 μM", "value": 24.5, "unit": "%"}, {"measurement": "AST increased", "setting": "[1]; human, in vivo", "value": 3, "unit": "%"}, {"measurement": "TEAEs mild to moderate in severity (Grade 1/Grade 2)", "setting": "[1]; human, in vivo", "value": 90, "unit": "%"}, {"measurement": "abdominal pain", "setting": "[1]; human, in vivo", "value": 3, "unit": "%"}, {"measurement": "abdominal pain upper", "setting": "[1]; human, in vivo", "value": 3, "unit": "%"}, {"measurement": "diarrhea, most common TEAEs", "setting": "[1]; human, in vivo", "value": 68, "unit": "%"}, {"measurement": "disease progression", "setting": "[1]; human, in vivo", "value": 8, "unit": "%"}, {"measurement": "dose-limiting toxicities (DLTs)", "setting": "[1]; human, in vivo", "value": "without any dose-limiting toxicities"}, {"measurement": "dyspnea", "setting": "[1]; human, in vivo", "value": 3, "unit": "%"}, {"measurement": "emergent or cumulative toxicity and/or declining tolerability", "setting": "[1]; human, in vivo", "value": "No evidence of emergent or cumulative toxicity and/or declining tolerability"}, {"measurement": "fatigue", "setting": "[1]; human, in vivo", "value": 3, "unit": "%"}, {"measurement": "fatigue, most common TEAEs", "setting": "[1]; human, in vivo", "value": 47, "unit": "%"}, {"measurement": "hyponatremia", "setting": "[1]; human, in vivo", "value": 4, "unit": "%"}, {"measurement": "infection", "setting": "[1]; human, in vivo", "value": 4, "unit": "%"}, {"measurement": "lymphocyte count decreased", "setting": "[1]; human, in vivo", "value": 5, "unit": "%"}, {"measurement": "nausea", "setting": "[1]; human, in vivo", "value": 3, "unit": "%"}, {"measurement": "nausea, most common TEAEs", "setting": "[1]; human, in vivo", "value": 66, "unit": "%"}, {"measurement": "neutropenia", "setting": "[1]; human, in vivo", "value": 8, "unit": "%"}, {"measurement": "pleural effusion", "setting": "[1]; human, in vivo", "value": 3, "unit": "%"}, {"measurement": "rash maculo-papular", "setting": "[1]; human, in vivo", "value": 3, "unit": "%"}, {"measurement": "recommended monotherapy dose", "setting": "[1]; human, in vivo", "value": 800, "unit": "mg/day"}, {"measurement": "subjects with at least one SRA737-related event", "setting": "[1]; human, in vivo", "value": 91, "unit": "%"}, {"measurement": "tolerability of 800 mg once daily", "setting": "[1]; human, in vivo", "value": "overall better tolerated than 1000 mg"}, {"measurement": "vomiting, most common TEAEs", "setting": "[1]; human, in vivo", "value": 51, "unit": "%"}, {"measurement": "subjects experiencing DLTs", "setting": "[1]; human, in vivo, 28 days", "value": 3, "unit": "subjects"}, {"measurement": "maximum tolerated dose (MTD)", "setting": "[1]; monotherapy", "value": 1000, "unit": "mg/day"}, {"measurement": "recommended dose for expansion cohorts (RP2D)", "setting": "[1]; monotherapy", "value": 800, "unit": "mg QD"}, {"measurement": "relatedness of Grade 5 TEAEs", "setting": "[1]; monotherapy", "value": "none were considered related to SRA737"}, {"measurement": "subjects with treatment-emergent adverse events (TEAEs)", "setting": "[1]; monotherapy", "value": "106 (99%) n (%)"}, {"measurement": "maximum tolerated dose (MTD)", "setting": "[1]; monotherapy, once daily", "value": 1000, "unit": "mg QD"}, {"measurement": "maximum tolerated dose (MTD)", "setting": "[1]; monotherapy, twice daily", "value": 500, "unit": "mg BID"}, {"measurement": "number of Grade 5 TEAEs", "setting": "[1]; monotherapy, up to 30-days post last treatment", "value": "Six"}]}]}
